Literature values in patent US12377175B2, “Trifunctional constructs with tunable pharmacokinetics useful in imaging and anti-tumor therapies” (Cornell University, priority 2016, dated 2025).

Target: T1, PSMA on LNCaP cells (Homo sapiens, UniProt Q04609)
T1 construct: host or cells: LNCaP
Details: cited from earlier work

T1 sequence (Q04609 whole entry): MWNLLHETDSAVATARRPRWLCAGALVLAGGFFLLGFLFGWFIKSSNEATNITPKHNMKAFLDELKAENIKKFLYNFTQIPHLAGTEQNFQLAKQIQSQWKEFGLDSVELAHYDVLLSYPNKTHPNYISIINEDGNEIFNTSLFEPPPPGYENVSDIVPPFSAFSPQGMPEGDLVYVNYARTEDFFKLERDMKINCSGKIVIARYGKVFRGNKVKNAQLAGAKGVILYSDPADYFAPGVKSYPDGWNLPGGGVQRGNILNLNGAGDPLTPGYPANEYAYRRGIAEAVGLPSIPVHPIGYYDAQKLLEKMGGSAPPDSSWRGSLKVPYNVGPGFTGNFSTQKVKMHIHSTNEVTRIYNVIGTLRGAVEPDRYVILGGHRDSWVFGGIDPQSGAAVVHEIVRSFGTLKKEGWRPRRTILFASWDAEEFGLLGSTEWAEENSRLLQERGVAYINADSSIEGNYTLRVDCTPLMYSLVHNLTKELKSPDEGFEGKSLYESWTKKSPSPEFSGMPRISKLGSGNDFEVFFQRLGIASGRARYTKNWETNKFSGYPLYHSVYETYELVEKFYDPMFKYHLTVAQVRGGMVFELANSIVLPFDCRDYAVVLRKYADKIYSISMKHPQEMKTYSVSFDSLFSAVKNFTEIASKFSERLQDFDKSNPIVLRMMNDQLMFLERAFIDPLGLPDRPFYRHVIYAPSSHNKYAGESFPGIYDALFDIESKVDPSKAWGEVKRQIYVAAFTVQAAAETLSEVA

## O=C(O)CC[C@H](NC(=O)N[C@@H](CCC(=O)N[C@@H](CCCCN(Cc1nccn1CC(=O)O)Cc1nccn1CC(=O)O)C(=O)O)C(=O)O)C(=O)O.[C-]#[O+].[C-]#[O+].[C-]#[O+].[Tc+] [99mTc-MIP-1427, ^99mTc-((7S,12S,16S)-1-(1-(carboxymethyl)-1H-imidazol-2-yl)-2-((1-(carboxymethyl)-1H-imidazol-2-yl)methyl)-9,14-dioxo-2,8,13,15-tetraazaoctadecane-7,12,16,18-tetracarboxylic acid technetiumtricarbonylcomplex)]
  Kd: 0.64 ± 0.46 nM
